Reference: patent US20250170158A1, “METHODS OF TREATING MEDICAL CONDITIONS USING CENSAVUDINE OR A RELATED COMPOUND” (ROME Therapeutics, Inc., priority 2022, published 2025)
Entries after “also recorded” stand apart in the source; their conditions may differ.

Legend:
[1] = target: T1, LINE1 reverse transcriptase (Homo sapiens, UniProt O00370); test: Homogeneous time-resolved fluorescence (HTRF) LINE1 RT assay; format: biochemical; set-up: recombinant MBP-tagged LINE1 protein (238-1061); MBP; made in house; conditions: recombinant MBP-tagged LINE1 protein (238-1061), read-out: IC50, inhibition of LINE1 reverse transcriptase
Description: The LINE1 reverse transcriptase homogeneous time-resolved fluorescence (HTRF) assay was performed with recombinant MBP-tagged LINE1 protein (238-1061) (generated and purified according to procedures in Dai L. et al. BMC Biochemistry 2011; 12:18) in a 384-well format. Test compound was serially diluted in DMSO and further diluted in the assay buffer (50 mM Tris-HCl, 50 mM KCl, 10 mM MgCl2, 10 mM DTT, pH 8.1) to achieve a final DMSO concentration of 1%. The serially diluted compound was mixed with 64 ng/well of LINE1 enzyme, 5 nM of pre-annealed template/biotin-primer pair (synthesized at Generay Biotechnology), 10 nM of Fluorescein-12-dATP fluorescent probe (Perkin Elmer), and 1 μM dGTP/dCTP/dTTP (Thermo Fisher Scientific) in the assay buffer. The template/biotin-primer sequences were as follows:
After incubating at 25° C. for 60 minutes, the detection reagent (20 mM EDTA with streptavidin-terbium cryptate, Cisbio Bioassay) in the PPI buffer (Cisbio Bioassay) was added, and the mixture was incubated at 25° C. for 30 minutes. At the end of the incubation, fluorescence was read at ex/em=337/485 nm and ex/em=337/520 nm on an Envision 2104 plate reader (Perkin Elmer). The fluorescence ratio at 520/485 nm was used for the calculation. […] The IC50 was calculated by fitting the compound dose inhibition curve with a 4-parameter non-linear regression equation.

[2] = target: T2, HERV-K reverse transcriptase (Homo sapiens, UniProt V9H0F6); test: Homogeneous time-resolved fluorescence (HTRF) HERV-K RT assay; format: biochemical; conditions: HERV-K reverse transcriptase (2-596)-8His protein, read-out: IC50, inhibition of HERV-K reverse transcriptase
T2 construct: fused on or other part: C-terminal 8His tag
Description: The HERV-K reverse transcriptase homogeneous time-resolved fluorescence (HTRF) assay was performed in a 384-well format with HERV-K reverse transcriptase (2-596)-8His protein. Baculoviruses were created using Bac-to-Bac technology (Invitrogen). pFastBac donor plasmids containing HERV-K reverse transcriptase sequence (NCBI GenBank number AAC63291.1, J. Virology (1999) Vol. 73, No. 3, pp. 2365-2375) were transformed into DH10 Bac cells following the manufacturer's instructions. Recombinant bacmids were then isolated clonally and transfected into SF9 cells with lipofectin. HERV-K reverse transcriptase was expressed in the SF9 insect cells and then purified using immobilized metal affinity chromatography (IMAC) followed by size-exclusion chromatography (SEC). Test compound was serially diluted in DMSO and further diluted in the assay buffer (50 mM Tris-HCl, 50 mM KCl, 10 mM MgCl2, 10 mM DTT, pH 8.1) to achieve a final DMSO concentration of 1%. […] At the end of the incubation, fluorescence was read at ex/em=337/485 nm and ex/em=337/520 nm on an Envision 2104 plate reader (Perkin Elmer). The fluorescence ratio at 520/485 nm was used for the calculation. […] The IC50 was calculated by fitting the compound dose inhibition curve with a 4-parameter non-linear regression equation.

[3] = test system: Type 1 Interferon; test: Cellular assay for inhibiting IFN production in THP1 TREX1 KO cells; format: cell-based; conditions: THP1-Dual KO-TREX1 cells, six days of treatment, alone or with 1 μM 5-Aza-2'-Deoxycytidine; FIG. 2
Description: THP1 Dual TREX1 KO cells were purchased from Invivogen.
Stock solution of censavudine was prepared in DMSO followed by a three-fold dilution in DMSO. Additional 50× dilution was prepared in cell culture media for each dilution. 10 μL of diluted censavudine was then added to a 96 well plate.
THP1-Dual™ KO-TREX1 cells were treated with either 1×PBS or 1 μM 5-Aza-2′-Deoxycytidine. 190 μL of the THP1-Dual™ KO-TREX1 cells from either treatment were added to each well of the 96-well plate containing censavudine titration at 50,000 cells/well. Cells were incubated at 37° C., 5% CO2 in a humidified incubator for six days. Cells treated with 1 μM 5-Aza-2′-Deoxycytidine were added at the same density as above and incubated at 37° C., 5% CO2 in a humidified incubator for six days. On day six, 25 μL of cell supernatant was transferred to a 96 well white-walled plate, followed by addition of 50 μL of QUANTI-LUC solution containing stabilizer to each well.

[4] = test system: CD4+ T cells; test: Mouse MOG study: BrdU cell proliferation assay on lymph node cells; format: in vivo, C57BL mice
Description: (§1) On day zero, four groups of six C57BL mice were immunized subcutaneously at 2 sites with 0.1 mL/site with MOG35-55/CFA (Hooke immunization kit). Dosing of mice started on day 0 and continued through day 11. The dosing schedule was:
(§2) The Vehicle used was 0.5% methylcellulose. Mice were dosed each day at approximately the same time each day. One day 11, 1 hour after receiving the last dose, plasma was collected, frozen and stored at −80° C. for analysis. At the end of the experiment, all mice were euthanized, and inguinal lymph nodes were collected and processed.
A bromodeoxyuridine (BrdU) cell proliferation assay was run on some of the lymph node cells to determine if treatment of mice with censavudine altered the proliferation of CD4+ T cells in culture upon restimulation with antigen. Cultures of the cells were set up in 96-well plates, each using 400k cells/well along with six concentrations of antigen: 0, 0.2 μg/mL, 0.7 μg/mL, 2.2 μg/mL, 6.6 μg/mL and 20.0 μg/mL, each with duplicates. The cells were cultured for approximately 40 hours, then BrdU was added to all wells at a concentration of 3 μg/mL. The cells were cultured an additional 3 hours after the addition of BrdU. Cells were then collected, stained with anti-CD4 and anti-BrdU antibodies (as per Becton Dickinson's standard protocols for BrdU labeling) and analyzed.

[5] = test system: IL-17A, IFN, TNF; test: Mouse MOG study: lymph node cell culture and CBA cytokine analysis; format: in vivo, C57BL mice
Description: as §1, §2
Lymph node cells from each group were set up in 96-well plates with 400k cells/well along with seven concentrations of antigen: 0, 0.07 μg/mL, 0.2 μg/mL, 0.7 μg/mL, 2.2 μg/mL, 6.6 μg/mL and 20.0 μg/mL. After 72 hours of culturing, the supernatants were collected and analyzed for IL-17A, IFN […] , and TNF using CBA kits (Becton-Dickinson).

[6] = test system: THP1-Dual KO-TREX1 cells
Description: The THP1-Dual™ KO-TREX1 cells were cultured in RPMI 1640, 10% heat-inactivated fetal bovine serum, 25 mM HEPES, 10 μg/mL Blasticidin, and 100 μg/mL Zeocin. THP1-Dual™ KO-TREX1 cells were treated with a dose titration of censavudine alone or in the presence of 1 μM 5-Aza-2′-Deoxycytidine (Sigma, cat #189825). Type 1 Interferon and cell viability were assessed after six days of treatment.
The remaining cells were assessed for cell viability by adding 25 μL of CellTiter-Glo (Promega, G9683) solution to each well, placed on a shaker for 10 minutes at room temperature. Luminescence was detected on a plate reader, according to manufacturer's instructions.

[7] = target: T1, LINE1 reverse transcriptase; test: Transient artificial-intron Cis LINE1 reporter assay; format: cell-based; set-up: expressed in transfected cells; conditions: HEK 293 cells; ratio of FLuc to RLuc reports LINE1 activity; read-out: IC50, inhibition of FLuc (FF/RR)
Description: Intron-disrupted Firefly luciferase (FLuc) expression cassettes were generated as described by Xie, Y. et al. “Characterization of L1 retrotransposition with high-throughput dual-luciferase assays,” Nucleic Acid Res. (2011) Vol. 39, No. 3, e16. In addition, the plasmid contained an intact Renilla luciferase (RLuc) expression cassette on the vector backbone, in order to normalize transfection efficiency and measure potential cell toxicity.
HEK 293 cells were seeded in 96-well plates at 1,000 cells/well in 55 μL and grown for 24 hours. Cells were transfected with FuGeneHD (Promega) following the manufacturer's protocol. Each well received 0.133 ng plasmid, 0.4 μL FuGeneHD reagent, and 4.5 μL GlutaMAX-I-supplemented Opti-MEM I reduced-serum medium (Invitrogen). Cells were simultaneously treated with test compound serially diluted starting at 100 μM in a 3-fold dilution dose response.
Luminescence was measured using the Dual-Glo Luciferase Assay System (Promega) following the manufacturer's instructions. The ratio between FLuc and RLuc gene expression was used to report LINE1 activity.

[8] = target: T1, LINE1 reverse transcriptase; test: Stable artificial-intron Cis LINE1 reporter assay; format: cell-based; set-up: expressed in transfected cells; conditions: HeLa L1 artificial-intron reporter cells, doxycycline induced, 72 h, Firefly luciferase; read-out: IC50, inhibition of LINE1 reverse transcriptase
Text: A stable HeLa Tet-On 3G (Takara, cat no 631183) cell line expressing a bi-directional inducible LINE1 construct was generated as described in Xie, Y. et al. “Cell division promotes efficient retrotransposition in a stable L1 reporter cell line,” Mobile DNA (2013) 4:10. Single cell clones were screened for high Luciferase expression and the highest expression Firefly expressing clone was chosen for compound testing.
Test compound was serially diluted in DMSO and spotted in 96-well plates. Subsequently the HeLa L1 artifical-intron reporter cells were plated into the compound-containing wells (8,000 cells/well), and the cells were induced for reporter expression with doxycycline (Sigma cat no D9891) at a final concentration of 500 ng/mL. Luminescence was measured 72 h after plating using the Dual-Glo Luciferase Assay System (Promega cat no E2940) following the manufacturer's instructions. The Firefly Luciferase activity was used to report LINE1 activity.

T2 sequence (V9H0F6 entry or part of it): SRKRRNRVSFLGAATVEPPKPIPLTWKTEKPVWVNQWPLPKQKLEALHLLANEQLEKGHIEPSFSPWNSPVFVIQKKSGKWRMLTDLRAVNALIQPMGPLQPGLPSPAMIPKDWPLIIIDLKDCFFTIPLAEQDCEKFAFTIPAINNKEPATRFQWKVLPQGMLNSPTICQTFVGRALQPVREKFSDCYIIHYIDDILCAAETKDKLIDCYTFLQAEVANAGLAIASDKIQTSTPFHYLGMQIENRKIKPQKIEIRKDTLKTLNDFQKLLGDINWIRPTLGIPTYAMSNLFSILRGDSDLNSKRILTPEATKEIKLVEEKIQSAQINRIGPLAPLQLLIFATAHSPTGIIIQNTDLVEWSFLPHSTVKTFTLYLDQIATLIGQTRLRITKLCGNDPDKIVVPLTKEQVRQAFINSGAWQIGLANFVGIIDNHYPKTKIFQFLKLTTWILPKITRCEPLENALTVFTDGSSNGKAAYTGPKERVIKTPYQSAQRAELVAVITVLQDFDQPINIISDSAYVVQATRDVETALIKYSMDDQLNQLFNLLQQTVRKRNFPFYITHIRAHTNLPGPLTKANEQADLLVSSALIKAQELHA

Q: For C#C[C@@]1(COP(=O)(O)OP(=O)(O)OP(=O)(O)O)C=C[C@H](n2cc(C)c(=O)[nH]c2=O)O1, which IC50 [1] is on record?
A: The IC50 was 0.07 µM.

Q: What about the IC50 [2] of the same compound?
A: The IC50 was 6.4 µM.

Q: C#C[C@@]1(CO)C=C[C@H](n2cc(C)c(=O)[nH]c2=O)O1 [censavudine, 1-[(2R,5R)-5-ethynyl-5-(hydroxymethyl)-2H-furan-2-yl]-5-methylpyrimidine-2,4-dione] was tested. Which “interferon (Type 1 Interferon reporter)” value [3] did it give?
A: The value was “significant reduction of interferon; also recorded: inhibition of interferon”.

Q: What about the T cell proliferation ([4]; MOG immunized mice, QD p.o. day 0-11, lymph node cells restimulated with antigen, BrdU, FIG. 3A) of the same compound?
A: Its T cell proliferation is “reduce levels; also recorded: reduction of T-cell proliferation”.

Q: What about the “Th17 (T17)” value ([4]; MOG immunized mice, various doses QD p.o., FIG. 3B) of the same compound?
A: The value was “reduce levels; also recorded: reduction of the cytokine Th17”.

Q: What about the “Th1 (T1)” value ([4]; MOG immunized mice, various doses QD p.o., FIG. 3C) of the same compound?
A: The value was “reduce levels; also recorded: reduction of the cytokine Th1”.

Q: What about the “autoreactive T-cell responses” value ([4]; doses between 40 mg/kg and 200 mg/kg, FIGS. 3A-3C) of the same compound?
A: The value was “significant reduction”.

Q: What about the IL-17A level ([5]; MOG35-55/CFA immunized mice, QD p.o. day 0-11, lymph node cells restimulated with antigen 72 h, FIG. 4A) of the same compound?
A: The IL-17A level was “reduce levels; also recorded: reduction of IL17A”.

Q: And the TNF level ([5]; MOG35-55/CFA immunized mice, QD p.o. day 0-11, lymph node cells restimulated with antigen 72 h, FIG. 4B)?
A: The TNF level was “reduce levels; also recorded: reduction of TNF”.

Q: And the IFN level ([5]; MOG35-55/CFA immunized mice, QD p.o. day 0-11, lymph node cells restimulated with antigen 72 h, FIG. 4C)?
A: The IFN level was “reduce levels; also recorded: reduction of IFN”.

Q: And the “proinflammatory cytokines (IL17A, TNF, IFN), effect” value ([5]; all doses (8, 40, 200 mg/kg QD p.o.), FIGS. 4A-4C)?
A: The value was “some effect”.

Q: And the “proinflammatory cytokines (IL17A, TNF, IFN), response” value ([5]; doses of 40 mg/kg and 200 mg/kg, FIGS. 4A-4C)?
A: The value was “best responses”.

Q: What about the “cell viability / cell death” value [6] of the same compound?
A: The value was “does not lead to cell death”.

Q: Which IC50 [7] does the source give for C#C[C@@]1(CO)C=C[C@H](n2cc(C)c(=O)[nH]c2=O)O1 [drawing 16] here?
A: The IC50 was 0.06 µM.

Q: And the IC50 [8]?
A: Its IC50 is 0.13 µM.
